Nine compounds from paper PMC5571359, “Screening the Medicines for Malaria Venture Pathogen Box across Multiple Pathogens Reclassifies Starting Points for Open-Source Drug Discovery” (Antimicrobial Agents and Chemotherapy, 2017) can be followed below.

In general, IC50 refers to the concentration that inhibits the measured activity by half. As usually defined, the Emax is the size of the effect at its maximum, as opposed to the concentration needed. As a reminder, the inhibition is the drop in the measured response relative to a control, in per cent.

Like-named read-outs stand apart in the source and are kept apart here.

Experiment [1] concerns T. cruzi intracellular amastigotes. As to the kind of experiment: Intracellular anti-Trypanosoma cruzi image-based assay (amastigotes). Format: cell-based. The settings on record: Trypanosoma cruzi; for Emax: read-out: T. cruzi Emax (maximal % inhibition plateau in dose response curve).
For experiment [2], the system named is NF54-pfs16-LUC-GFP stage IV gametocytes. As to the kind of experiment: Plasmodium falciparum late stage gametocyte (LSG) image-based assay. The experiment is classed as cell-based. The settings on record: Plasmodium falciparum; for inhibition at 20 µM: NF54, read-out: percent inhibition at the top screening dose, P. falciparum NF54 LSG; for IC50: NF54, read-out: IC50 P. falciparum NF54 LSG, reference compound set, 11-point dose response, IA = inactive at 20 μM.

The subject of experiment [3] is T. b. brucei 427 bloodstream trypanosomes. As to the kind of experiment: T. b. brucei resazurin viability assay. The experiment is classed as cell-based, Trypanosoma brucei brucei. The settings on record: Trypanosoma brucei, reference compound set; for IC50: IA = inactive at 20 μM, read-out: IC50 T. brucei brucei trypomastigotes. In general terms: Resazurin is reduced to fluorescent resorufin, in cell work by metabolically active cells.

The test system of a further experiment is 3T3 host cells. Nature of the experiment: T. cruzi assay, activity against 3T3 host cells. Format: cell-based. The settings on record: reference compound set; IA = inactive at 16.4 μM. As to the method:
page 4: […] Puromycin, 71 chloroquine, artesunate, DHA, pyronaridine and pyrimethamine were also tested in 72 IC50 format to act as internal reference compounds. 73 74 Intracellular anti-Trypanosoma cruzi Assay Protocol 75 The host cell cytoplasm, in which the parasite resides, is identified by the fluorescent 76 marker, HCS CellMask Green. Parasite and host cell nuclei are detected with the 77 fluorescent DNA intercalator, Hoechst 33342. The Opera® High Content Screening 78 System is used to take images of wells and a spot detection algorithm is used to 79 identify parasites within the cytoplasm. 80 81 Briefly, 1x 10^3 3T3 cells were added to collagen coated 384-well plates and following 82 24 hrs incubation at 37 °C, a multiplicity of infection (MOI) of 5:1 parasite: host cells 83 were added to the plate using a Multidrop liquid handler. Following additional 24 hrs 84 incubation, extracellular parasites were washed from the plates and RPMI with no […] 86 added to all wells. The final volume of media in the primary screening assay, before 87 addition of compound, was modified slightly to 55 µL. One µL of compounds, provided 88 by Compounds Australia, were diluted by the addition of 25 µL of sterile water. This […] 91 donovani). Five microliters of this dilution was added to assay plates. The final […] The final concentrations of compounds in the […] Following 48 hrs incubation in the presence 97 of compounds, wells were fixed, stained and read on the Opera® High Content 98 Screening System to assess compound activity. 99 The Z′-factor, as a measure of assay reproducibility, was determined from a plate […] The positive control used to calculate activity against […] To 103 assess the sensitivity of the T. cruzi assay, activity of the reference compounds 104 benznidazole, NFX, posaconazole and puromycin were determined. […] 108 resazurin as a measure of parasite viability. 109 T. b. brucei trypanosomes were cultured in vitro in HM1-9 medium supplemented with […] Fifty-five µL of logarithmic phase […] 112 incubated for 24 hrs at 37°C /5% CO2. Compounds were subsequently added to the […] Following […] 116 37°C / 5% CO2 followed by 22 hrs at room temperature. […] The percent

Experiment [4] concerns L. donovani MHOM/IN/80/DD8 intracellular amastigotes. As to the kind of experiment: Leishmania donovani intracellular amastigote assay in THP-1 cells. The experiment is classed as cell-based. The settings on record: Leishmania donovani, reference compound set; for inhibition at 20 µM: THP-1; for IC50: IA = inactive at 20 μM.
Experiment [5] has as its system Plasmodium falciparum 3D7 asexual blood stage. Nature of the experiment: microbe, parasite or virus in culture. The settings on record: for inhibition at 20 µM: 3D7, read-out: percent inhibition at the top screening dose, P. falciparum 3D7 ABS.
Setting [6] is: reference compound set, IA = inactive at 16.4 μM, read-out: IC50 T. cruzi intracellular amastigotes.
Setting [7] is: 3D7, read-out: IC50 P. falciparum 3D7 ABS.
Where [8] appears, read: THP-1, read-out: IC50 L. donovani n = 1, first test.
Setting [9] is: THP-1, read-out: IC50 L. donovani n = 2, second test.

Regarding `CC[C@@H]([C@H](C)O)n1ncn(-c2ccc(N3CCN(c4ccc(OC[C@@H]5CO[C@@](Cn6cncn6)(c6ccc(F)cc6F)C5)cc4)CC3)cc2)c1=O` [Posaconazole, reference compound], the IC50 is 0.001 µM in experiment [1] (in-house control stock, not the PBox sample, read-out: IC50 of standard in-house assay control, T. cruzi amastigotes); 0.172 µM in experiment [1] (setting [6]); above 20 µM in experiment [3]; above 16.4 µM in the experiment with 3T3 host cells; 4.1 µM in experiment [5] (setting [7]). Also, the Emax in experiment [1] (reference compound set) worked out at 73%. Also, the inhibition at 20 µM in experiment [2] is 63%; in experiment [4] (first test, read-out: percent inhibition at the top screening dose, L. donovani n = 1) it was 64%; in experiment [4] (second test, read-out: percent inhibition at the top screening dose, L. donovani n = 2) it was 60%.
Take `CC[C@@H](CO)NCCN[C@@H](CC)CO` [Ethambutol, reference compound]: the half-inhibitory concentration (IC50) in experiment [1] (setting [6]) is above 16.4 µM; in experiment [3], above 20 µM; with 3T3 host cells, above 16.4 µM; in experiment [4] (setting [8]) it was above 20 µM; in experiment [4] (setting [9]), above 20 µM; in experiment [5] (setting [7]) it was above 20 µM. In experiment [2], the inhibition at 20 µM was found to be 42%.
For `OC(c1cc(C(F)(F)F)nc2c(C(F)(F)F)cccc12)C1CCCCN1` (stereo not drawn) [Mefloquine, reference compound], the IC50 in experiment [1] (setting [6]) is 4.7 µM; in experiment [2], 5.61 µM; in experiment [3], 0.33 µM; with 3T3 host cells it was above 16.4 µM; in experiment [4] (setting [8]) it was 5.17 µM; in experiment [4] (setting [9]), 6.58 µM. Also, in experiment [5] (3D7, read-out: IC50 P. falciparum 3D7 ABS, reference compound set, 11-point dose response, IA = inactive at 20 μM), the IC50 was below 0.016 µM. In addition, the maximal response (Emax) in experiment [1] (reference compound set) is 99%.
For the compound `CCCCCCCCCCCCCCCCOP(=O)([O-])OCC[N+](C)(C)C` [Miltefosine, reference compound], the IC50 in experiment [1] (setting [6]) is above 16.4 µM; in experiment [2] it was above 20 µM; in experiment [3] it was above 20 µM; in the experiment on 3T3 host cells it was above 16.4 µM; in experiment [4] (setting [8]), 11.7 µM; in experiment [4] (setting [9]), 2.26 µM. The concentration for half-maximal inhibition (IC50) in experiment [5] (setting [7]) is above 20 µM.
With `NCC[C@H](O)C(=O)N[C@@H]1C[C@H](N)[C@@H](O[C@H]2O[C@H](CN)[C@@H](O)[C@H](O)[C@H]2O)[C@H](O)[C@H]1O[C@H]1O[C@H](CO)[C@@H](O)[C@H](N)[C@H]1O` [Amikacin, reference compound], the IC50 in experiment [1] (setting [6]) is above 16.4 µM; in experiment [2], above 20 µM; in experiment [3] it was above 20 µM; in the experiment on 3T3 host cells, above 16.4 µM; in experiment [4] (setting [8]), above 20 µM; in experiment [4] (setting [9]) it was above 20 µM. In addition, the IC50 in experiment [5] (setting [7]) is above 20 µM.
`CCN(CC)C(=O)N1CCN(C)CC1` [Diethylcarbamazine, reference compound]: the IC50 was above 16.4 µM in experiment [1] (setting [6]); above 20 µM in experiment [2]; above 20 µM in experiment [3]; above 16.4 µM in the experiment on 3T3 host cells; above 20 µM in experiment [4] (setting [8]); above 20 µM in experiment [4] (setting [9]). The IC50 in experiment [5] (setting [7]) is above 20 µM.
With `COc1nc2ccc(Br)cc2cc1[C@@H](c1ccccc1)[C@@](O)(CCN(C)C)c1cccc2ccccc12` [Bedaquiline, reference compound], the IC50 in experiment [1] (setting [6]) is above 16.4 µM; in the experiment on 3T3 host cells, above 16.4 µM; in experiment [4] (setting [8]), above 20 µM; in experiment [4] (setting [9]) it was above 20 µM. The inhibition at 20 µM in experiment [2] worked out at 75%; in experiment [3] (20 μM, read-out: percent inhibition at the top screening dose, T. brucei brucei) it was 59%; in experiment [5], 91%.
For `O=C(Cn1ccnc1[N+](=O)[O-])NCc1ccccc1` [Benznidazole, reference compound], the inhibition at 16.4 µM in experiment [1] (reference compound set, 16.4 μM, read-out: percent inhibition at the top screening dose, T. cruzi intracellular amastigotes) was 94%. Further, the IC50 in experiment [2] was above 20 µM; in experiment [3] it was above 20 µM; in the experiment with 3T3 host cells it was above 16.4 µM; in experiment [4] (setting [8]), above 20 µM; in experiment [4] (setting [9]), above 20 µM; in experiment [5] (setting [7]) it was above 20 µM.
For `CC(C)/N=c1\cc2n(-c3ccc(Cl)cc3)c3ccccc3nc-2cc1Nc1ccc(Cl)cc1` [Clofazimine, reference compound], the IC50 in experiment [1] (setting [6]) is above 16.4 µM; in experiment [2], above 20 µM; in experiment [3] it was above 20 µM; in the experiment with 3T3 host cells it was above 16.4 µM; in experiment [4] (setting [8]), above 20 µM; in experiment [4] (setting [9]), above 20 µM. The inhibition at 20 µM in experiment [5] was found to be 84%.
